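How tested: cells in 96-well plates exposed to compound for 48 hours at five concentrations. GI50 is the concentration that inhibits growth by half. The concentration for full growth arrest is given as TGI.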
Key:
Assay in all cases: NCI anticancer screen, dose series, 48 h
[1] = tested on: SF-268 CNS
[2] = tested on: SNB-19 CNS
[3] = tested on: RPMI-8226 leukemia
[4] = tested on: UACC-257 melanoma
[5] = tested on: MALME-3M melanoma
[6] = tested on: SF-295 CNS
[7] = tested on: HCC-2998 colon
[8] = tested on: 786-0 renal
[9] = tested on: UO-31 renal
[10] = tested on: CAKI-1 renal
[11] = tested on: HOP-92 NSCLC
[12] = tested on: NCI-H23 lung
[13] = tested on: HCT-15 colon
[14] = tested on: OVCAR-5 ovarian
[15] = tested on: RXF 393 renal
[16] = tested on: EKVX NSCLC
[17] = tested on: SK-MEL-5 melanoma
[18] = tested on: UACC-62 melanoma
[19] = tested on: HS 578T breast
[20] = tested on: SF-539 CNS
[21] = tested on: MDA-MB-231 breast
[22] = tested on: MDA-MB-435
[23] = tested on: SK-MEL-2 melanoma
[24] = tested on: DU-145 prostate
[25] = tested on: A549 NSCLC
[26] = tested on: U251 CNS
[27] = tested on: HCT-116 colon
[28] = tested on: T-47D breast
[29] = tested on: HL-60(TB) leukemia
[30] = tested on: OVCAR-3 ovarian
[31] = tested on: SNB-75 CNS
[32] = tested on: SK-MEL-28 melanoma
[33] = tested on: NCI-H522 lung
[34] = tested on: NCI-H226 lung
[35] = tested on: OVCAR-4 ovarian
[36] = tested on: IGROV1 ovarian
[37] = tested on: HT29 colon
[38] = tested on: HOP-62 NSCLC
[39] = tested on: M14 melanoma
[40] = tested on: CCRF-CEM leukemia
[41] = tested on: PC-3 prostate
[42] = tested on: A498 renal
[43] = tested on: NCI/ADR-RES ovarian
[44] = tested on: MCF7 breast
[45] = tested on: OVCAR-8 ovarian
[46] = tested on: LOX IMVI melanoma
[47] = tested on: NCI-H460 lung
[48] = tested on: COLO 205 colon
[49] = tested on: ACHN renal
[50] = tested on: BT-549 breast
[51] = tested on: SW-620 colon
[52] = tested on: SK-OV-3 ovarian
[53] = tested on: MOLT-4 leukemia
[54] = tested on: SN12C renal
[55] = tested on: KM12 colon
[56] = tested on: TK-10 renal

`FC(F)(F)c1cc(Nc2cccc(Oc3ccc(NC4=NCCN4)nc3)c2)ccc1Cl` showed a GI50 [1] of 4.14 µM, a TGI [1] of 17.9 µM and a GI50 [2] of 2.74 µM. For the same compound, the TGI [2] was 8.64 µM, the GI50 [3] was 2.03 µM and the TGI [3] was 5.24 µM. The GI50 [4] was 3.09 µM, the TGI [4] was 9.59 µM and the GI50 [5] was 2.81 µM. It also gave a TGI [5] of 9.7 µM, a GI50 [6] of 1.73 µM and a TGI [6] of 3.37 µM. It also gave a GI50 [7] of 1.98 µM, a TGI [7] of 3.65 µM and a GI50 [8] of 1.76 µM. For the same compound, the TGI [8] was 3.58 µM, the GI50 [9] was 2.19 µM and the TGI [9] was 8.61 µM. The GI50 [10] was 2.76 µM, the TGI [10] was 11.3 µM and the GI50 [11] was 1.42 µM. It also gave a TGI [11] of 5.29 µM, a GI50 [12] of 2.53 µM and a TGI [12] of 7.6 µM. It also gave a GI50 [13] of 1.66 µM, a TGI [13] of 3.32 µM and a GI50 [14] of 2.49 µM. The TGI [14] was 6.81 µM, the GI50 [15] was 2.05 µM and the TGI [15] was 4.94 µM. For the same compound, the GI50 [16] was 2.07 µM, the TGI [16] was 5.45 µM and the GI50 [17] was 1.8 µM. The TGI [17] was 3.24 µM, the GI50 [18] was 2.59 µM and the TGI [18] was 6.89 µM. The GI50 [19] was 1.98 µM, the TGI [19] was 4.63 µM and the GI50 [20] was 2.07 µM. The TGI [20] was 4.57 µM, the GI50 [21] was 2.18 µM and the TGI [21] was 5.02 µM. For the same compound, the GI50 [22] was 1.66 µM, the TGI [22] was 3.3 µM and the GI50 [23] was 2.62 µM. It also gave a TGI [23] of 6.99 µM, a GI50 [24] of 2.09 µM and a TGI [24] of 4.44 µM. It also gave a GI50 [25] of 2.35 µM, a TGI [25] of 6.31 µM and a GI50 [26] of 2.09 µM. For the same compound, the TGI [26] was 4.75 µM, the GI50 [27] was 1.73 µM and the TGI [27] was 3.19 µM. The GI50 [28] was 2.79 µM, the TGI [28] was 11.3 µM and the GI50 [29] was 2.11 µM. For the same compound, the TGI [29] was 5.53 µM, the GI50 [30] was 2.5 µM and the TGI [30] was 6.33 µM. It also gave a GI50 [31] of 1.96 µM, a TGI [31] of 8.29 µM and a GI50 [32] of 1.94 µM. For the same compound, the TGI [32] was 3.89 µM, the GI50 [33] was 1.93 µM and the TGI [33] was 4.36 µM. The GI50 [34] was 2.06 µM, the TGI [34] was 5.34 µM and the GI50 [35] was 2.75 µM. For the same compound, the TGI [35] was 11 µM, the GI50 [36] was 1.83 µM and the TGI [36] was 4.22 µM. The GI50 [37] was 2.05 µM, the TGI [37] was 5.07 µM and the GI50 [38] was 2.22 µM. It also gave a TGI [38] of 6.1 µM, a GI50 [39] of 1.73 µM and a TGI [39] of 3.46 µM. For the same compound, the GI50 [40] was 2.8 µM, the TGI [40] was 14.6 µM and the GI50 [41] was 1.92 µM. The TGI [41] was 3.73 µM, the GI50 [42] was 2.31 µM and the TGI [42] was 9.85 µM. It also gave a GI50 [43] of 2.05 µM, a TGI [43] of 4.52 µM and a GI50 [44] of 1.74 µM. It also gave a TGI [44] of 3.69 µM, a GI50 [45] of 2.49 µM and a TGI [45] of 6.73 µM. For the same compound, the GI50 [46] was 1.74 µM, the TGI [46] was 3.19 µM and the GI50 [47] was 1.98 µM. For the same compound, the TGI [47] was 3.95 µM, the GI50 [48] was 1.87 µM and the TGI [48] was 3.96 µM. The GI50 [49] was 2.91 µM, the TGI [49] was 8.66 µM and the GI50 [50] was 3.91 µM. It also gave a TGI [50] of 16.9 µM, a GI50 [51] of 1.76 µM and a TGI [51] of 3.65 µM. For the same compound, the GI50 [52] was 14.8 µM, the TGI [52] was 32 µM and the GI50 [53] was 3.2 µM. For the same compound, the TGI [53] was 14.2 µM, the GI50 [54] was 1.87 µM and the TGI [54] was 3.82 µM. The GI50 [55] was 2.02 µM, the TGI [55] was 4.47 µM and the GI50 [56] was 3.97 µM. It also gave a TGI [56] of 16.1 µM.

From PubChem BioAssay (NCI)
